The results in this text go back to US20260053834A1, “COVALENT MODIFIERS OF AKT1 AND USES THEREOF” (Terremoto Biosciences, Inc., priority 2023, published 2026).

For experiment [1], the system named is LAPC4 prostate cancer cells, which express the AKT1 E17K allele. Put plainly: Antiproliferative effects in LAPC4 cells (CellTiter Glo, 72 h). Conditions: Homo sapiens, LAPC4, 72 h, read-out: LAPC4 proliferation IC50: GeoMean IC50. It is filed as cell-based. An outline of the steps: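 IC50 values come from Hill-equation fitting of luminescence (cellular ATP) after 72 h compound exposure. Treated wells held 1,000 cells each, with compound delivered as DMSO dilutions. Culture medium was IMDM plus 12% FBS.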

The target in a further experiment is T1, AKT2 (Homo sapiens, UniProt P31751).
T1 construct: expressed in transfected cells; host or cells: HEK293
Description: Live cell target engagement by NanoBRET competitive probe displacement, AKT2. The experiment is classed as binding. Particulars: transfected HEK293 cells, 2 h at 37° C., read-out: AKT2 IC50: GeoMean IC50.

The next experiment deals with T2, AKT1 E17K (Homo sapiens, UniProt P31749, E17K).
T2 construct: expressed in transfected cells; host or cells: HEK293
Description: Live cell target engagement by NanoBRET competitive probe displacement, AKT1 E17K. It is filed as binding. Conditions: transfected HEK293 cells, 2 h at 37° C., read-out: AKT1 E17K IC50: GeoMean IC50. In general terms: BRET reads energy transfer from a luciferase to a nearby fluorophore.

Another experiment addresses T3, AKT1 WT (Homo sapiens, UniProt P31749).
T3 construct: expressed in transfected cells; host or cells: HEK293
Put plainly: Live cell target engagement by NanoBRET competitive probe displacement, AKT1 WT. The experiment is classed as binding. Conditions: transfected HEK293 cells, 2 h at 37° C., read-out: AKT1 WT IC50: GeoMean IC50.

pIC50: −log10 of the molar value.

T2 sequence (P31749 whole entry E17K): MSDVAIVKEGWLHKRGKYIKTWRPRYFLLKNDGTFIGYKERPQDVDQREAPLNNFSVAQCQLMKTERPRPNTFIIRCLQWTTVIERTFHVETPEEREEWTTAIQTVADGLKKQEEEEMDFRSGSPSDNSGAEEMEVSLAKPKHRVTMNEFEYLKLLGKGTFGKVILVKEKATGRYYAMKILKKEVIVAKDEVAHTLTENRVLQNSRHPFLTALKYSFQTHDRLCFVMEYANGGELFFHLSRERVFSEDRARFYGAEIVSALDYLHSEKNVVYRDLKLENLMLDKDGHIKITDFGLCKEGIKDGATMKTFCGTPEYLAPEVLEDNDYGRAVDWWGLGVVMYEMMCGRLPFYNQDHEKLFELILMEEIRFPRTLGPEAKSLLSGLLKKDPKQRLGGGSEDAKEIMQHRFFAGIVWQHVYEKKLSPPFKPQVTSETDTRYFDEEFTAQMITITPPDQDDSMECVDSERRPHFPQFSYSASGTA
T3 sequence (P31749 whole entry): as the sequence (P31749 whole entry E17K) above, with K17E counted along it
T1 sequence (P31751 whole entry): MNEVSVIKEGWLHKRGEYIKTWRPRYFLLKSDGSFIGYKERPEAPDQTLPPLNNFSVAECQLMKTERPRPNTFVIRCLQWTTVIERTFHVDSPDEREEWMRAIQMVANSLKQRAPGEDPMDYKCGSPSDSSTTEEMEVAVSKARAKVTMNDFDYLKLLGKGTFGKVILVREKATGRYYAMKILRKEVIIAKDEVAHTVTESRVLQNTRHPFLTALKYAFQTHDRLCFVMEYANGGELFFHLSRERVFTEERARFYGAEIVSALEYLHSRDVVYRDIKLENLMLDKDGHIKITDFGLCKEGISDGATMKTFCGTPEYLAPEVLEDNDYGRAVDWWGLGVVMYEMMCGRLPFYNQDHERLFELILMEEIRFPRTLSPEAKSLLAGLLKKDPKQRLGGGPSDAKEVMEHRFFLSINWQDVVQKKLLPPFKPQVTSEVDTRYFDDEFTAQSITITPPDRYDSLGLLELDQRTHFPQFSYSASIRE

Consider `COCc1cc(-n2cccn2)nc2c1nc(-c1cccnc1N)n2-c1ccc2c(c1)CC[C@@H]2NC(=O)c1ccc(O)c(C=O)c1` [Example 210, N-[(1S)-5-[2-(2-aminopyridin-3-yl)-7-(methoxymethyl)-5-(pyrazol-1-yl)imidazo[4,5-b]pyridin-3-yl]-2,3-dihydro-1H-inden-1-yl]-3-formyl-4-hydroxybenzamide], for which the pIC50 is 5.70 to 7.00 in experiment [1], 5.70 to 7.00 on AKT2, 7.00 to 8.00 at AKT1 E17K and 7.00 to 8.00 at AKT1 WT.
As for `Cc1cc(-c2ncco2)nc2c1nc(-c1cccnc1N)n2-c1ccc2c(c1)CC[C@@H]2NC(=O)c1ccc(O)c(C=O)c1` [Example 211, N-[(1S)-5-[2-(2-aminopyridin-3-yl)-7-methyl-5-(1,3-oxazol-2-yl)imidazo[4,5-b]pyridin-3-yl]-2,3-dihydro-1H-inden-1-yl]-3-formyl-4-hydroxybenzamide], the pIC50 in experiment [1] is 7.00 to 8.00; at AKT2, 5.70 to 7.00; on AKT1 E17K, greater than 8.00; at AKT1 WT it was 7.00 to 8.00.
Turning to `Nc1ncccc1-c1nc2c(Cl)cc(-n3cccn3)nc2n1-c1ccc2c(c1)CC[C@@H]2NC(=O)c1cc(C=O)c(O)c(F)c1F` [Example 212, N-[(1S)-5-[2-(2-aminopyridin-3-yl)-7-chloro-5-(pyrazol-1-yl)imidazo[4,5-b]pyridin-3-yl]-2,3-dihydro-1H-inden-1-yl]-2,3-difluoro-5-formyl-4-hydroxybenzamide], the pIC50 in experiment [1] was 7.00 to 8.00; at AKT2, 7.00 to 8.00; at AKT1 E17K it was greater than 8.00; on AKT1 WT, greater than 8.00.
On to `Nc1ncccc1-c1nc2c(F)cc(-n3cccn3)nc2n1-c1ccc2c(c1)CC[C@@H]2NC(=O)c1ccc(O)c(C=O)c1` [Example 213, N-[(1S)-5-[2-(2-aminopyridin-3-yl)-7-fluoro-5-(pyrazol-1-yl)imidazo[4,5-b]pyridin-3-yl]-2,3-dihydro-1H-inden-1-yl]-3-formyl-4-hydroxybenzamide], for which the pIC50 in experiment [1] is 5.70 to 7.00; on AKT2, 5.70 to 7.00; at AKT1 E17K, 7.00 to 8.00; on AKT1 WT, 7.00 to 8.00.
As to `COc1c(O)c(C=O)cc(C(=O)N[C@H]2CCc3cc(-n4c(-c5cccnc5N)nc5ccc(-n6cccn6)nc54)ccc32)c1F` [Example 214, N-[(1S)-5-[2-(2-aminopyridin-3-yl)-5-(pyrazol-1-yl)imidazo[4,5-b]pyridin-3-yl]-2,3-dihydro-1H-inden-1-yl]-2-fluoro-5-formyl-4-hydroxy-3-methoxybenzamide], the pIC50 is 7.00 to 8.00 in experiment [1], 5.70 to 7.00 on AKT2, greater than 8.00 at AKT1 E17K and 7.00 to 8.00 at AKT1 WT.
Take `COc1cc2nc(-c3cccnc3N)n(-c3ccc4c(c3)CC[C@@H]4NC(=O)c3ccc(O)c(C=O)c3)c2nc1-n1cccn1` [Example 215, N-[(1S)-5-[2-(2-aminopyridin-3-yl)-6-methoxy-5-(pyrazol-1-yl)imidazo[4,5-b]pyridin-3-yl]-2,3-dihydro-1H-inden-1-yl]-3-formyl-4-hydroxybenzamide]: the pIC50 is 5.70 to 7.00 in experiment [1], 5.70 to 7.00 at AKT2, 7.00 to 8.00 at AKT1 E17K and 5.70 to 7.00 at AKT1 WT.
As for `Nc1ncccc1-c1nc2ccc(-n3cccn3)nc2n1-c1ccc2c(c1)CC[C@@H]2NC(=O)Cc1ccc(C=O)c(O)c1F` [Example 216, (S)—N-(5-(2-(2-aminopyridin-3-yl)-5-(1H-pyrazol-1-yl)-3H-imidazo[4,5-b]pyridin-3-yl)-2,3-dihydro-1H-inden-1-yl)-2-(2-fluoro-4-formyl-3-hydroxyphenyl)acetamide; trifluoroacetic acid], the pIC50 in experiment [1] is 5.70 to 7.00; at AKT2, 5.70 to 7.00; on AKT1 E17K, 7.00 to 8.00; on AKT1 WT it was 5.70 to 7.00.
Regarding `CS(=O)(=O)Nc1cc(F)c(C(=O)N[C@H]2CCc3cc(-n4c(-c5cccnc5N)nc5ccc(-n6cccn6)nc54)ccc32)cc1C=O` [Example 217, N-[(1S)-5-[2-(2-aminopyridin-3-yl)-5-(pyrazol-1-yl)imidazo[4,5-b]pyridin-3-yl]-2,3-dihydro-1H-inden-1-yl]-2-fluoro-5-formyl-4-methanesulfonamidobenzamide], the pIC50 (in experiment [1]; on AKT2; on AKT1 E17K; on AKT1 WT) was no more than 5.70 throughout.
For the compound `[N-]=[N+]=Nc1c(C(=O)N[C@H]2CCc3cc(-n4c(-c5cccnc5N)nc5ccc(-n6cccn6)nc54)ccc32)cc(C=O)c(O)c1F` [Example 218, (S)—N-(5-(2-(2-aminopyridin-3-yl)-5-(1H-pyrazol-1-yl)-3H-imidazo[4,5-b]pyridin-3-yl)-2,3-dihydro-1H-inden-1-yl)-2-azido-3-fluoro-5-formyl-4-hydroxybenzamide], the pIC50 (in experiment [1]; on AKT2; on AKT1 E17K; at AKT1 WT) was 5.70 to 7.00 each time.
Take `CC1(NC(=O)c2ccc(O)c(C=O)c2)CCc2cc(-n3c(-c4cccnc4N)nc4ccc(-n5cccn5)nc43)ccc21` (centres unmarked) [Example 219, N-(5-(2-(2-aminopyridin-3-yl)-5-(1H-pyrazol-1-yl)-3H-imidazo[4,5-b]pyridin-3-yl)-1-methyl-2,3-dihydro-1H-inden-1-yl)-3-formyl-4-hydroxybenzamide]: the pIC50 was no more than 5.70 in experiment [1], 5.70 to 7.00 on AKT2, no more than 5.70 at AKT1 E17K and 5.70 to 7.00 at AKT1 WT.
As to `Cc1cc(-n2cccn2)nc2c1nc(-c1cccnc1N)n2-c1ccc2c(c1)CC[C@@H]2n1cnc2cc(O)c(C=O)cc2c1=O` [Example 220, (S)-3-(5-(2-(2-aminopyridin-3-yl)-7-methyl-5-(1H-pyrazol-1-yl)-3H-imidazo[4,5-b]pyridin-3-yl)-2,3-dihydro-1H-inden-1-yl)-7-hydroxy-4-oxo-3,4-dihydroquinazoline-6-carbaldehyde], the pIC50 (in experiment [1]; on AKT2; on AKT1 E17K; on AKT1 WT) was 5.70 to 7.00 in each case.
As to `COc1cc(-n2cccn2)nc2c1nc(-c1cccnc1N)n2-c1ccc2c(c1)CC[C@@H]2NC(=O)c1cc(C=O)c(O)cc1F` [Example 221, N-[(1S)-5-[2-(2-aminopyridin-3-yl)-7-methoxy-5-(pyrazol-1-yl)imidazo[4,5-b]pyridin-3-yl]-2,3-dihydro-1H-inden-1-yl]-2-fluoro-5-formyl-4-hydroxybenzamide], the pIC50 is 7.00 to 8.00 in experiment [1], 5.70 to 7.00 on AKT2, 7.00 to 8.00 at AKT1 E17K and 7.00 to 8.00 on AKT1 WT.
As to `COc1cc(-n2cccn2)nc2c1nc(-c1cccnc1N)n2-c1ccc2c(c1)CC[C@@H]2NC(=O)c1cc(C=O)c(O)c(F)c1F` [Example 222, N-[(1S)-5-[2-(2-aminopyridin-3-yl)-7-methoxy-5-(pyrazol-1-yl)imidazo[4,5-b]pyridin-3-yl]-2,3-dihydro-1H-inden-1-yl]-2,3-difluoro-5-formyl-4-hydroxybenzamide], the pIC50 (in experiment [1]; at AKT2; at AKT1 E17K; on AKT1 WT) was 7.00 to 8.00 in each case.
Regarding `CN1CCN(c2cc(-n3cccn3)nc3c2nc(-c2cccnc2N)n3-c2ccc3c(c2)CC[C@@H]3NC(=O)c2ccc(O)c(C=O)c2)CC1` [Example 223, N-[(1S)-5-[2-(2-aminopyridin-3-yl)-7-(4-methylpiperazin-1-yl)-5-(pyrazol-1-yl)imidazo[4,5-b]pyridin-3-yl]-2,3-dihydro-1H-inden-1-yl]-3-formyl-4-hydroxybenzamide], the pIC50 in experiment [1] is 5.70 to 7.00; on AKT2, 5.70 to 7.00; at AKT1 E17K, 7.00 to 8.00; at AKT1 WT, 5.70 to 7.00.
For `Nc1ncccc1-c1nc2c(N3CCOCC3)cc(-n3cccn3)nc2n1-c1ccc2c(c1)CC[C@@H]2NC(=O)c1ccc(O)c(C=O)c1` [Example 224, N-[(1S)-5-[2-(2-aminopyridin-3-yl)-7-(morpholin-4-yl)-5-(pyrazol-1-yl)imidazo[4,5-b]pyridin-3-yl]-2,3-dihydro-1H-inden-1-yl]-3-formyl-4-hydroxybenzamide], the pIC50 in experiment [1] is 7.00 to 8.00; at AKT2 it was 5.70 to 7.00; at AKT1 E17K, 7.00 to 8.00; at AKT1 WT, 7.00 to 8.00.
For the compound `Nc1ncccc1-c1nc2c(OC(F)F)cc(-n3cccn3)nc2n1-c1ccc2c(c1)CC[C@@H]2NC(=O)c1ccc(O)c(C=O)c1` [Example 225, N-[(1S)-5-[2-(2-aminopyridin-3-yl)-7-(difluoromethoxy)-5-(pyrazol-1-yl)imidazo[4,5-b]pyridin-3-yl]-2,3-dihydro-1H-inden-1-yl]-3-formyl-4-hydroxybenzamide], the pIC50 in experiment [1] is 7.00 to 8.00; on AKT2 it was 5.70 to 7.00; on AKT1 E17K, 7.00 to 8.00; on AKT1 WT it was 7.00 to 8.00.
Consider `Nc1ncccc1-c1nc2cc(O)c(-n3cccn3)nc2n1-c1ccc2c(c1)CC[C@@H]2NC(=O)c1cc(C=O)c(O)cc1F` [Example 226, N-[(1S)-5-[2-(2-aminopyridin-3-yl)-6-hydroxy-5-(pyrazol-1-yl)imidazo[4,5-b]pyridin-3-yl]-2,3-dihydro-1H-inden-1-yl]-2-fluoro-5-formyl-4-hydroxybenzamide], for which the pIC50 in experiment [1] is 7.00 to 8.00; at AKT2, 5.70 to 7.00; at AKT1 E17K it was 7.00 to 8.00; at AKT1 WT, 7.00 to 8.00.
